Holding throughout (assay): DTP human tumour cell line panel, 48 h
The subject of assay [1] is A549 NSCLC.
Assay [2] has as its system CAKI-1 renal.
In assay [3] the test system is KM12 colon.
For assay [4], the system named is EKVX NSCLC.
For assay [5], the system named is UO-31 renal.
In assay [6] the test system is SK-MEL-2 melanoma.
Assay [7] concerns MDA-MB-435.
Assay [8] deals with SF-295 CNS.
In assay [9] the test system is DMS 114 small cell lung.
In assay [10] the test system is M19-MEL melanoma.

The values that follow come from PubChem BioAssay (NCI).

What is called GI50 is the concentration giving 50% growth inhibition. The TGI is the concentration giving total growth inhibition.

SMILES strings stand for the structures. Several values for one entry are separate records, joined by “and”; a condition that tells them apart may be missing. Equal values may be shown once.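 96-well plates; 48 h exposure; 5 concentrations. Endpoints by linear interpolation between flanking doses. Not reached: highest tested concentration assigned. GI50 marks 50% less growth. The concentration for full growth arrest is given as TGI.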 Some results are limits rather than exact numbers.

As to `O=C(N/N=C/c1ccc([N+](=O)[O-])cc1)c1ccc2nc(-c3ccc(Cl)cc3)[nH]c2c1`, the GI50 in assay [1] is 3.98 µM; in assay [2] it was 3.49 µM; in assay [3] it was 3.43 µM; in assay [4] it was 3.2 µM; in assay [5] it was 6.05 µM; in assay [6] it was 5.1 µM. Moreover, the GI50 was 3.57 µM in assay [7] and 3.4 µM in assay [8]. Also, the TGI in assay [1] amounted to 24.1 µM; in [2], 16.1 µM; in [3] it was 13 µM; in assay [4] it was 21.2 µM; in assay [5], 38.3 µM; in [6] it was 21.9 µM. In addition, the TGI stood at 12.2 µM in assay [7] and 13.1 µM in [8].

As to `O=C(CC(=O)N1N=C(N2c3ccccc3Sc3ccccc32)CC1c1ccccc1)Nc1ccc(Cl)cc1` (stereo not given), the TGI in assay [1], in [2], in assay [3], in assay [4], in [5] and in assay [9] was above 100 µM in each case. Further, the TGI in assay [10] and in assay [8] was above 100 µM in each case.

Regarding `CC1=CCC23C(C1)OC(Br)(C=CC2(C)O)C3(C)C` (stereo not given), the TGI in [1], in assay [2], in [3], in assay [4], in assay [6] and in assay [9] was above 100 µM each time. The TGI in [10] and in [8] was above 100 µM throughout.

Take `Cc1cc(C)c(O)c(CN(C)Cc2cc(Cl)cc(Cl)c2O)c1`: the GI50 in assay [1] is 5.41 µM; in [2], 2.77 µM; in assay [3], 5.31 µM; in assay [4], 4.52 µM; in assay [5] it was 1.64 µM; in assay [6], 6.52 µM. The GI50 in assay [7] was 6.16 µM; in [8], 2.18 µM. For the same compound, the TGI in assay [1] was 28.5 µM; in assay [2], 12.2 µM; in [3] it was 17.7 µM; in assay [4], 30.7 µM; in assay [5], 6.58 µM; in assay [6] it was 19.6 µM. The TGI in [7] was determined as 30.2 µM; in [8], 6.18 µM.

Turning to `C=CC1CC12C(=O)C1OC2(C)C2C(=O)c3c(O)ccc(O)c3C(=O)C12` (stereo not given), the GI50 is 8.5 µM in assay [1]; 0.402 µM in assay [2]; 5.83 µM in assay [3]; 7.46 µM in assay [4]; 7.83 µM in [5]; 14.5 µM in assay [6]. Besides, the GI50 was 4.44 µM in [7] and 1.39 µM in [8]. In addition, the TGI is 27.2 µM in [1]; 1.65 µM in assay [2]; 17.3 µM in assay [3]; 28.2 µM in [4]; 25.6 µM in assay [5]; above 100 µM in assay [6]. Also, the TGI turned out to be 11.1 µM in [7] and 5.55 µM in [8].

On to `O=c1[nH]cnc2[nH]ncc12`, for which the GI50 is 1940 µM in assay [1]; 97.2 µM in assay [2]; 1250 µM in [3]; 785 µM in [4]; > 64.9 µM and 525 µM in [5]; > 36.5 µM and 257 µM in [6]. Further, the GI50 in assay [7] is 380 µM; in [8] it was 349 µM. In addition, the TGI in [1], in assay [2], in assay [3], in [4], in assay [5] and in assay [6] was above 5000 µM throughout. The TGI in [7] and in [8] was above 5000 µM in each case.

With `c1ccc2c(c1)[nH]c1cnc3c4cccnc4[nH]c3c12`, the TGI in [1] is 34.7 µM; in [2], 33.7 µM; in assay [4] it was 39 µM; in assay [5] it was 33 µM; in assay [9], 37.4 µM; in assay [10], 31.5 µM. The compound also came in with a TGI in assay [8] of 49.8 µM.

Take `Cc1ccc(-c2cc(C3=CC(=O)C=CC3=O)n(-c3ccc(S(N)(=O)=O)cc3)n2)cc1`: the GI50 in [1] was above 100 µM; in [2], 52.3 µM; in assay [3] it was 24 µM; in [4] it was 47.8 µM; in [5], above 100 µM; in [6], above 100 µM. For the same compound, the GI50 was 59.4 µM in assay [7] and above 100 µM in [8]. In addition, the concentration for total growth inhibition (TGI) in assay [1], in assay [2], in assay [3], in [4], in assay [5] and in [6] was above 100 µM throughout. In addition, the TGI in assay [7] and in assay [8] was above 100 µM throughout.

`O=C(O)c1cc(N=Cc2ccccc2O)cc(C(=O)O)c1`: the TGI in [1], in assay [2], in [3], in assay [4], in assay [5] and in assay [6] was above 100 µM throughout. Further, the TGI in assay [7] and in [8] was above 100 µM in each case.

In the case of `O=C(C(=O)N1CC2C=CC1CC2)c1c[nH]c2ccccc12` (stereo not given), the TGI in assay [1], in [2], in [3], in assay [5], in assay [6] and in assay [9] was above 100 µM each time. Further, the TGI in assay [10] and in assay [8] was above 100 µM throughout.

For the compound `NS(=O)(=O)c1cccc(N=Cc2c(O)[nH]c3ccccc23)c1`, the GI50 in assay [1] is above 25 µM; in assay [2], 13.9 µM; in assay [3], 8.04 µM; in assay [4] it was above 25 µM; in assay [5] it was above 22.7 µM; in assay [6], above 25 µM. Besides, the GI50 in assay [7] and in assay [8] was above 25 µM each time. Moreover, the TGI in assay [1], in assay [2], in assay [3], in assay [4], in assay [5] and in [6] was above 25 µM each time. For the same compound, the TGI in assay [7] and in assay [8] was above 25 µM each time.
